Experimental data as given in patent publication US20250324977A1, “ENGINEERED BACTERIA FOR ENHANCED CROP PRODUCTION” (The Regents of the University of California, priority 2022, published 2025).

Columns and labels:
[1] = system: Arabidopsis roots; settings: in vivo; cited from earlier work
[2] = system: Arabidopsis; assay: Combinatorial root growth assay with plant growth media supplied with Trp; assay type: in vivo
Experimental: To further test this hypothesis, we supplied plant growth media with Trp (FIG. 4, FIGS. 13 and 14) and repeated the combinatorial assay. […] In contrast, root growth might improve if the WCS417 strain are metabolically active only around the root tips. […] However, at 10 μM, Trp inhibited the root growth of plants colonized with the wild-type WCS417 strain. […] Additionally, we inoculated the engineered strains to the Trp-overproducing Arabidopsis mutant line. Root growth and development of this Arabidopsis mutant line are not also impaired (FIG. 4).
First, Arabidopsis seeds are sterilized with 70% ethanol for 2 min and 10% bleach for 5 min. These seeds are rinsed five times with sterile water. Sterilized seeds are kept in a 4° C. fridge for 3 days and then are horizontally individually dispensed on the surface of 1/2 MS agar plates. The plates are vertically incubated in a plant growth chamber under a light cycle of 8 h dark and 16 h light for 6 days. […] On the following day, cultures are washed three times with sterile 10 mM MgCl2 solution and measured for values at OD600nm using an Eppendorf Spectro reader. Uniformly germinated 6-day-old seedlings are inoculated with 1 μL of OD600nm=0.2 culture of engineered WCS417 strains. […] Collected photos are analyzed using EZ-Root-VIS software (Shahzad et al., 2018) for primary root length, lateral root number, and total length.

SMILES | level of externally added IAA that significantly changes root phenotypes [1] | root growth ([2]; 0.1 μM of Trp in plant growth media) | root growth of plants colonized with the wild-type WCS417 strain ([2]; 10 μM Trp in plant growth media)
O=C(O)Cc1c[nH]c2ccccc12 [IAA, Indole-3-acetic acid] | 0.01 to 0.1 µM | – | –
N[C@@H](Cc1c[nH]c2ccccc12)C(=O)O [Trp, tryptophan] | – | did not see much impact | inhibited
